Reference: patent publication US20020002294A1, “Estrogenic compounds as antiangiogenic agents” (priority 1997, published 2002)

Assays:
tubulin [1] = experiment: inhibition of tubulin polymerization in vitro (turbidity at 350 nm); assay type: biochemical
Protocol: Anti-mitotic activity can be evaluated by testing the ability of an estradiol derivative to inhibit tubulin polymerization and microtubule assembly in vitro. Microtubule assembly is followed in a Gilford recording spectrophotometer (model 250 or 2400S) equipped with electronic temperature controllers. A reaction mixture (all concentrations refer to a final reaction volume of […]) contains 1.0 M monosodium glutamate (ph 6.6), 1. omg/ml (10 μM) tubulin, 1.0 mM MgCl2, 4% (v/v) dimethylsulfoxide and 20-75μM of a composition to be tested. The 0.24 ml reaction mixtures are incubated for 15 min. at 37° C. and then chilled on ice. After addition of 10p1 2.5mM GTP, the reaction mixture is transferred to a cuvette at 0° C., and a baseline established. At time zero, the temperature controller of the spectrophotometer is set at 37° C. Microtubule assembly is evaluated by increased turbity at 350 nm.
A. Each reaction mixture (all concentrations refer to the final reaction volume of 0.25 ml) contained 1.0 M monosodium glutamate (pH 6.6), 1.0 mg/ml (10 μM) tubulin, 1.0 mM MgCl2, 4% (v/v) dimethylsulfoxide, and either 0 (curve 1), 20μM (curve 2), 40 μM (curve 3), or 75 μM (curve 4) 2-methoxyestradiol. The 0.24 ml reaction mixtures were incubated for 15 min. at 37° C and chilled on ice. After addition of 10 μl of 2.5 mM GTP the reaction mixtures were transferred to cuvettes held at 0° C., and baselines were established. At time zero the temperature controller was set at 37° C. At the times indicated by the vertical dashed lines the temperature controller was set at the indicated temperatures.
B. Each reaction mixture contained 0.8 M monosodium glutamate (pH 6.6), 1.2 mg/ml (12 μM) tubulin, 4% (v/v) dimethylsulfoxide, and either 0 (curve 1), 1.0 FM (curve 2), 2.0 ,M (curve 3), 3.0 μM (curve 4), or 4.0 μM (curve 5) 2-methoxyestradiol. The 0.24 ml reaction mixtures were incubated for 15 min. at 26° C. and chilled on ice. After addition of 10μl of 10 mM GTP the reaction mixtures were transferred to cuvettes held at 0° C., and baselines were established. At time zero the temperature controller was set at 26° C. At the time indicated by vertical dashed line the temperature controller was set at 0° C.
The method is given in Example 1.
S.D., standard deviation.

tubulin [2] = experiment: tubulin activities of 2-ME analogs (Table 3); assay type: biochemical

COc1cc2c(cc1O)CCC1C2CCC2(C)C(O)CCC12 (stereo not drawn) [NSC 659853, 2-Methoxyestradiol]
inhibition of tubulin polymerization (FIG. 1), in words (tubulin [1]; 20-75 μM (A) or 1.0-4.0 μM (B) 2-methoxyestradiol): inhibition of tubulin polymerization
IC50 (tubulin [1]; read-out: IC50 (concentration required to inhibit tubulin polymerization by 50%), mean ± S.D., method of Example 1): 1.9 ± 0.2 µM
IC50 (tubulin [2]): 3.6 ± 0.4 µM
